Source: patent US5389687A, “Ring-substituted 2-amino-1,2,3,4-tetra-hydronaphthalenes” (Eli Lilly and Company, priority 1991, dated 1995)
Values joined by “and” are separate entries in the source; they are usually repeats but may differ in a detail not shown here. Equal values may be shown once. Read-outs that look alike come from different tables or passages of the source.

Tests used:
[1] = tested on: conscious spontaneous hypertensive rats (SHR); assay: Effect on blood pressure after i.v. administration to conscious SHR; type: in vivo; conditions: for ED25: Rattus norvegicus, iv, read-out: Blood Pressure ED25 (i.v. dose required to decrease pressure 25%)
Experimental: (§1) The compounds of this invention are also effective in reducing blood pressure. The blood pressure lowering effect of the compounds of this invention was determined in conscious spontaneous hypertensive rats (SHR; 325-425 g). The rats were anesthetized with halothane (2% in nitrous oxide and oxygen) and were implanted with femoral arterial and venous catheters. The tips of arterial and venous catheters-were positioned in the abdominal aorta below the renal arteries and lower abdominal vena cava, respectively. The catheters were routed subcutaneously to an exit point at the base of the skull and then through a small leather harness fastened around the forequarters of each animal. The animals were allowed a 3- to 4-day recovery period after surgery. On the day before an experiment, each rat was conditioned to the experimental surroundings for 6 hours. On the day of the experiment, the harness on the back of each animal was connected to a spring tether through which arterial and venous extension tubing was routed. The other end of the tubing was connected to a water tight swivel. This system permitted direct recording of blood pressure in conscious free moving animals. Mean arterial blood pressure was measured via a Statham strain gauge transducer (P23DB, Statham Instruments, Oxnard, Calif.) and recorded on a multichannel oscillograph (Beckman Model R611, Beckman Instruments, Palo Alto, Calif.). A minimum 30-minute equilibration period was observed prior to the experimental protocol during which time the animals preened and blood pressure was quite labile. Afterward, the animals appeared to sleep and pressure was stable. Following a control blood pressure measurement, rats were dosed with the compound or vehicle i.v., and pressure was monitored at various time intervals thereafter.
(§2) ^1 Standard protocol recorded the blood pressure and heart rate
(§3) responses after 0.3, 1.0 and 3.0 mg/kg i.v. Dose response curves were
(§4) plotted using the % change in pressure from pretreatment control values a
(§5) 15 and 30 minutes after treatment.
(§6) Corr = correlation coefficient for the linear relationship between the lo
(§7) dose(s) and % change (y) in pressure. Values of 1.0 = perfect correlation
(§8) Pos = Positive slope of dose response
ED25 = i.v. dose required to decrease pressure 25%

[2] = tested on: conscious spontaneous hypertensive rats (SHR); assay: Effect on heart rate after i.v. administration to conscious SHR; type: in vivo; conditions: for ED15: Rattus norvegicus, iv, read-out: Heart Rate ED15
Experimental: as §1, §2, §3, §4, §5, §6, §7, §8
HR Index = ED15 for Heart Rate divided by ED25 for Blood

[3] = target: T1, 5HT1a receptors (Rattus norvegicus, UniProt P19327); assay: Binding at 5HT1a receptors in vitro (inhibition of 3H-8-OH-DPAT binding to synaptosomal membranes from cerebral cortex); parameters: species or system Male Sprague-Dawley rats; conditions: 0.4 nM 3H-8-OH-DPAT, 37° C., 10 min, pH 7.4, several values in a cell are separate determinations
T1 construct: synaptosomal membranes isolated from cerebral cortex; from tissue; host or cells: rat cerebral cortex, crude synaptosomal membranes (Male Sprague-Dawley rats from Harlan Industries)
T1 sequence (P19327 1-422): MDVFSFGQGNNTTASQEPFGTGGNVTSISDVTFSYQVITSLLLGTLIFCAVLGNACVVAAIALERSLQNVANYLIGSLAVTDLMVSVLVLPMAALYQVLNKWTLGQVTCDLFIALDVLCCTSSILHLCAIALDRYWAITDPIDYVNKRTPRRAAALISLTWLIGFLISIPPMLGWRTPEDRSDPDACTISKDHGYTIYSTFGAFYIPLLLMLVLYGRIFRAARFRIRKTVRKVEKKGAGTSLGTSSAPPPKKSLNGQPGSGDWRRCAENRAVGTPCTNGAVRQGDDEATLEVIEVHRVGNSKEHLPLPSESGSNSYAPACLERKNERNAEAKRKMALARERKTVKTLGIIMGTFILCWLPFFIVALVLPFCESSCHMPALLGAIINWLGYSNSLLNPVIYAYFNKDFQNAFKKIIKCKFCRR
Experimental: This general procedure is set forth in Wong et al., J. Neural Transm. 71:207-218 (1988).
Male Sprague-Dawley rats (110-150 g) from Harlan Industries (Cumberland, Ind.) were fed a Purina Chow ad libitum for at least 3 days before being used in the studies. Rats were killed by decapitation. The brains were rapidly removed, and the cerebral cortices were dissected out at 4° C.
Brain tissues were homogenized in 0.32 M sucrose. After centrifugation at 1000×g for 10 min and then at 17000×g for 20 min, a crude synaptosomal fraction was sedimented. The pellet was suspended in 100 vol of 50 mM Tris-HCl, pH 7.4, incubated at 37° C. for 10 min, and centrifuged at 50000×g for 10 min. The process was repeated and the final pellet was suspended in ice-chilled 50 mM Tris-HCl, pH 7.4. By the radio-ligand binding method, sites specifically labeled by tritiated 8-hydroxy-2-dipropylamino-1,2,3,4-tetrahydronaphthalene ([…]) have been identified as 5HT-1a receptors.
Binding of (^3 H-8-OH-DPAT) was performed according to the previously described method [Wong et al., J. Neural Transm. 64:251-269 (1985)]. Briefly, synaptosomal membranes isolated from cerebral cortex were incubated at 37° C. for 10 min. in 2 ml of 50 mM Tris-HCl, pH 7.4; 10 μM pargyline; 0.6 mM ascorbic acid; and 0.4 nM […]. Binding was terminated by filtering samples under reduced pressure through glass fiber (GFB) filters. The filters were washed twice with 5 ml of ice cold buffer and placed in scintillation vials with 10 ml of PCS (Amersham/Searle) scintillation fluid. Radioactivity was measured with a liquid scintillation spectrometer. Unlabeled 8-OH-DPAT at 10 μM was also included in separate samples to establish non-specific binding. Specific binding of ^3 H-8-OH-DPAT is defined as the difference of radioactivity bound in the absence and in the presence of 10 μM unlabeled 8-OH-DPAT.

[4] = 30 min. after treatment, i.v., conscious SHR
[5] = 0.25 h, 15 min. after treatment, i.v., conscious SHR
[6] = 0.5 h, 30 min. after treatment, i.v., conscious SHR
[7] = 15 min. after treatment, i.v., conscious SHR

| Structure (SMILES) | HR Index (ED15 for Heart Rate divided by ED25 for Blood Pressure) [2, 4] | IC50 ([3]; IC50 5HT1a) | ED25 [1, 5] [mg/kg] | ED25 [1, 6] [mg/kg] | HR Index (ED15 for Heart Rate divided by ED25 for Blood Pressure) [2, 7] | ED15 [2, 5] [mg/kg] | ED15 [2, 6] [mg/kg] | IC50 ([3]; read-out: IC50 5HT1a) | other results |
| --- | --- | --- | --- | --- | --- | --- | --- | --- | --- |
| CCN(CC)C1CCc2cccc(Cl)c2C1 (stereo not shown) [Example 2, 2-Diethylamino-8-chloro-1,2,3,4-tetrahydronaphthalene] | 1.00 | 48 nM and 38.2 nM |  |  |  |  |  |  | ED25 ([1]; 0.5 h): 1.5 mg/kg; ED15 ([2]; 0.5 h): 1.5 mg/kg |
| CCN(C)C1CCc2cccc(Cl)c2C1 (stereo not shown) [Example 13, 2-Methylethylamino-8-chloro-1,2,3,4-tetrahydronaphthalene] | 0.70 |  | 0.7 | 0.9 | 0.69 | 0.48 | 0.63 | 120 nM |  |
| CCN(C)C1CCc2cccc(C(N)=O)c2C1 (stereo not shown) [Example 20, 2-Methylethylamino-8-carboxamido-1,2,3,4-tetrahydronaphthalene] |  |  |  |  |  |  |  | 400 nM |  |
| CCCNC1CCc2cccc(Cl)c2C1 (stereo not shown) [Example 10, 2-n-Propylamino-8-chloro-1,2,3,4-tetrahydronaphthalene] | 0.47 |  | 2.5 | 4.5 | 0.48 | 1.2 | 2.1 | 200 nM |  |
| CN(C)C1CCc2cccc(C(N)=O)c2C1 (stereo not shown) [Example 19, 2-Dimethylamino-8-carboxamido-1,2,3,4-tetrahydronaphthalene] |  |  | 10.9 | 1030 |  |  |  |  | Heart Rate ED15 [2, 7]: Pos; Heart Rate ED15 [2, 4]: Pos |
| CCCCN(CCCC)C1CCc2cccc(Cl)c2C1 (stereo not shown) [Example 4, 2-Di-n-butylamino-8-chloro-1,2,3,4-tetrahydronaphthalene] |  |  |  |  |  |  |  | 780 nM and 318 nM |  |
| CCCN(CCC)C1CCc2cccc(C=O)c2C1 (stereo not shown) [Example 17, 2-Di-n-propylamino-8-formyl-1,2,3,4-tetrahydronaphthalene] |  | 17.2 nM |  |  |  |  |  |  |  |
| CCCN(CCC)C1CCc2cccc(C#N)c2C1 (stereo not shown) [Example 8, 2-Di-n-propylamino-8-cyano-1,2,3,4-tetrahydronaphthalene] | 0.68 | 55 nM | 5.1 | 4.1 | 0.71 | 3.6 | 2.8 |  |  |
| CCCN(CCC)C1CCc2cccc(F)c2C1 (stereo not shown) [Example 6, 2-Di-n-propylamino-8-fluoro-1,2,3,4-tetrahydronaphthalene] |  |  | 4.5 |  |  |  | 8 | 280 nM | Heart Rate ED15 [2, 7]: Pos |
| CCCNC1CCc2cccc(NC(C)=O)c2C1 (stereo not shown) [Example 18, 2-Propylamino-8-acetamido-1,2,3,4-tetrahydronaphthalene] |  |  |  |  |  | 3.8 | 1.2 |  |  |
| C=CCN(CC=C)C1CCc2cccc(Cl)c2C1 (stereo not shown) [Example 3, 2-Diallylamino-8-chloro-1,2,3,4-tetrahydronaphthalene] |  | 45.2 nM |  |  |  |  |  |  |  |
| CC(C)N(C)C1CCc2cccc(Cl)c2C1 (stereo not shown) [Example 14, 2-Methylisopropylamino-8-chloro-1,2,3,4-tetrahydronaphthalene] |  |  | 2.9 |  | 1.31 | 3.8 |  |  |  |
| CCCN(CCC)C1CCc2cccc(Cl)c2C1 (stereo not shown) [Example 1, 2-Di-n-propylamino-8-chloro-1,2,3,4-tetrahydronaphthalene] | 0.22 | 18 nM | 3.1 | 13 | 8.96 | 27.8 | 2.8 |  |  |
| CCCN(CCC)C1CCc2cccc(CO)c2C1 (stereo not shown) [Example 21, 2-Di-n-propylamino-8-hydroxymethyl-1,2,3,4-tetrahydronaphthalene] |  | 55.5 nM | 4.2 |  |  |  |  |  | convulsion ([1]; 3.0 mg/kg i.v., conscious SHR): caused convulsion |
| CN(C)C1CCc2cccc(Cl)c2C1 (stereo not shown) [Example 11, 2-Dimethylamino-8-chloro-1,2,3,4-tetrahydronaphthalene] | 3.00 |  | 1.1 | 1.8 | 1.0 | 1.1 | 5.4 | 580 nM and 272 nM |  |
| CNC1CCc2cccc(Cl)c2C1 (stereo not shown) [Example 12, 2-Methylamino-8-chloro-1,2,3,4-tetrahydronaphthalene] | 0.83 |  | 1.4 | 1.8 |  |  | 1.5 |  |  |
| CCCN(CCC)C1CCc2cccc(C(=O)OC)c2C1 (stereo not shown) [Example 7, 2-Di-n-propylamino-8-methoxycarbonyl-1,2,3,4-tetrahydronaphthalene] | 0.21 | 1.4 nM and 1.8 nM and 2.4 nM |  | 5.3 |  | 1.4 | 1.1 |  |  |
| CCCN(C)C1CCc2cccc(Cl)c2C1 (stereo not shown) [Example 15, 2-Methylpropylamino-8-chloro-1,2,3,4-tetrahydronaphthalene] |  |  | 1.6 | 3.8 |  |  |  | 500 nM |  |
| CCCN(CCC)C1CCc2cccc(Br)c2C1 (stereo not shown) [Example 5, 2-Di-n-propylamino-8-bromo-1,2,3,4-tetrahydronaphthalene] | 0.27 | 23 nM and 15.1 nM | 6.1 | 5.9 | 0.06 | 1.6 | 1.6 |  |  |
| CCCN(CCC)C1CCc2cccc(C(N)=O)c2C1 (stereo not shown) [Example 16, 2-Di-n-propylamino-8-carboxamido-1,2,3,4-tetrahydronaphthalene] | 0.51 | 7.1 nM and 9 nM and 6.1 nM and 5.8 nM | 4.2 | 5.7 | 0.35 | 1.5 | 2.9 |  |  |
